Values of other authors, collected in patent US8920373B2, “Reduced volume formulation of glatiramer acetate and methods of administration” (Teva Pharmaceutical Industries, Ltd., priority 2009, dated 2014).

Test system: RRMS subjects

Patients reporting Immediate Post-Injection Reaction (IPIR) (human, in vivo): 31% | Proportion of patients reporting injection-site reactions at least once (human, in vivo): 70%
Substance: glatiramer acetate
Reduction of relapse rate versus placebo (largest controlled study): 32% | Relapse rate (largest controlled study): 1.34 | Median cumulative number of Gd-enhancing lesions (over 9 months of treatment): 11 lesions
